Results reported in patent US11697646B2, “Triazole N-linked carbamoyl cyclohexyl acids as LPA antagonists” (BRISTOL-MYERS SQUIBB COMPANY, priority 2017, dated 2023).
pIC50: −log10 of the molar value. Structures can show the parent of a compound that is named as a salt.

Target: T1, human LPA1 (Homo sapiens, UniProt Q92633)
T1 construct: expressed in transfected cells; host or cells: Chinese hamster ovary (CHO) cells
Test: LPA1 functional antagonist assay (calcium flux)
Format: cell-based
Settings: CHO cells overexpressing human LPA1; calcium flux induced by 10 nM LPA; read-out: hLPA1 IC50
Description: The effectiveness of compounds of the present invention as LPA1 inhibitors can be determined in an LPA1 functional antagonist assay as follows:
The cells were then equilibrated to room temperature for 30 minutes before the assay. […] IC50 values were determined by fitting data to a 4-parameter logistic equation (GraphPad Prism, San Diego Calif.).

T1 sequence (Q92633 whole entry): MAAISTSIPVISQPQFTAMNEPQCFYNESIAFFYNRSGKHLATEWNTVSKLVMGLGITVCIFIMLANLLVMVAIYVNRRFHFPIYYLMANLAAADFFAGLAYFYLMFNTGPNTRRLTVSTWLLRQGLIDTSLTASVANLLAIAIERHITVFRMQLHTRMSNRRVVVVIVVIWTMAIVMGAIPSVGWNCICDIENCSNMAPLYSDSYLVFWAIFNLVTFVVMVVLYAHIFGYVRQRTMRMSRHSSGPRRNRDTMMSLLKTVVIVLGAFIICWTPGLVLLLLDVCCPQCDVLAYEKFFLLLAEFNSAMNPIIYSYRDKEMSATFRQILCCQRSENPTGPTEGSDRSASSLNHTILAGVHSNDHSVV

| Structure (SMILES) | pIC50 |
| --- | --- |
| Cc1nc(-c2nnn(C)c2CNC(=O)OCCCC(C)(F)F)ccc1O[C@H]1CCC[C@H](C(=O)O)C1 [Example 206, (1S,3S)-3-((6-(5-(((((4,4-difluoropentyl)oxy)carbonyl)amino)methyl)-1-methyl-1H-1,2,3-triazol-4-yl)-2-methylpyridin-3-yl)oxy)cyclohexane-1-carboxylicacid] | 7.15 |
| Cc1nc(-c2nnn(C)c2CNC(=O)OC[C@@H]2CC2(F)F)ccc1O[C@H]1CCC[C@H](C(=O)O)C1 [Example 208, (1S,3S)-3-((6-(5-((((((S)-2,2-difluorocyclopropyl)methoxy)carbonyl)amino)methyl)-1-methyl-1H-1,2,3-triazol-4-yl)-2-methylpyridin-3-yl)oxy)cyclohexane-1-carboxylate diethylammonium salt] | 7.24 |
| Cc1nc(-c2nnn(C)c2CNC(=O)OCC2CCC2)c(F)cc1O[C@H]1CCC[C@H](C(=O)O)C1 [Example 212, (1S,3S)-3-((6-(5-((((cyclobutylmethoxy)carbonyl)amino)methyl)-1-methyl-1H-1,2,3-triazol-4-yl)-5-fluoro-2-methylpyridin-3-yl)oxy)cyclohexane-1-carboxylic acid] | 6.95 |
| Cc1nc(-c2nnn(C)c2CNC(=O)OCC(C)C)c(F)cc1O[C@H]1CCC[C@H](C(=O)O)C1 [Example 213] | 6.42 |
| Cc1nc(-c2nnn(C)c2CNC(=O)OC2CC3(CC3)C2)c(F)cc1O[C@H]1CCC[C@H](C(=O)O)C1 [Example 214, (1S,3S)-3-((5-fluoro-2-methyl-6-(1-methyl-5-((((spiro[2.3]hexan-5-yloxy)carbonyl)amino)methyl)-1H-1,2,3-triazol-4-yl)pyridin-3-yl)oxy)cyclohexane-1-carboxylic acid] | 6.89 |
| Cc1nc(-c2nnn(C)c2CNC(=O)OCC2(C)CC2)c(F)cc1O[C@H]1CCC[C@H](C(=O)O)C1 [Example 215, (1S,3S)-3-((5-fluoro-2-methyl-6-(1-methyl-5-(((((1-methylcyclopropyl)methoxy)carbonyl)amino)methyl)-1H-1,2,3-triazol-4-yl)pyridin-3-yl)oxy)cyclohexane-1-carboxylic acid] | 6.95 |
| CCC1(COC(=O)NCc2c(-c3nc(C)c(O[C@H]4CCC[C@H](C(=O)O)C4)cc3F)nnn2C)CC1 [Example 216, (1S,3S)-3-((6-(5-(((((1-ethylcyclo-propyl)methoxy)carbonyl)amino)methyl)-1-methyl-1H-1,2,3-triazol-4-yl)-5-fluoro-2-methylpyridin-3-yl)oxy)cyclohexane-1-carboxylic acid] | 7.34 |
| CCCCOC(=O)Nc1c(-c2nc(C)c(O[C@H]3CCC[C@H](C(=O)O)C3)cc2F)nnn1C [Example 217] | 7.14 |
| Cc1nc(-c2nnn(C)c2NC(=O)OCC2CC2)c(F)cc1O[C@H]1CCC[C@H](C(=O)O)C1 [Example 218, (1S,3S)-3-{[6-(5-{[(cyclopropylmethoxy)carbonyl]amino}-1-methyl-1H-1,2,3-triazol-4-yl)-5-fluoro-2-methylpyridin-3-yl]oxy} cyclohexane-1-carboxylic acid] | 6.52 |
| Cc1nc(-c2nnn(C)c2NC(=O)OCC(C)C)c(F)cc1O[C@H]1CCC[C@H](C(=O)O)C1 [Example 219, (1S,3S)-3-((5-fluoro-6-(5-((isobutoxycarbonyl)amino)-1-methyl-1H-1,2,3-triazol-4-yl)-2-methylpyridin-3-yl)oxy)cyclohexane-1-carboxylic acid] | 6.82 |
| CC(C)OC(=O)Nc1c(-c2ccc(O[C@H]3CCC[C@H](C(=O)O)C3)cn2)nnn1C [Example 220, (1S,3S)-3-((6-(5-((isopropoxy-carbonyl)amino)-1-methyl-1H-1,2,3-triazol-4-yl)pyridin-3-yl)oxy)cyclohexane-1-carboxylic acid] | 6.41 |
| CCCOC(=O)Nc1c(-c2ccc(O[C@H]3CCC[C@H](C(=O)O)C3)cn2)nnn1C [Example 221, (1S,3S)-3-((6-(1-methyl-5-((pro-poxy-carbonyl)amino)-1H-1,2,3-triazol-4-yl)pyridin-3-yl)oxy)cyclohexane-1-carboxylic acid] | 7.38 |
| CCCCOC(=O)Nc1c(-c2ccc(O[C@H]3CCC[C@H](C(=O)O)C3)c(C)n2)nnn1C [Example 222, (1S,3S)-3-((6-(5-((butoxycarbonyl)amino)-1-methyl-1H-1,2,3-triazol-4-yl)-2-methylpyridin-3-yl)oxy)cyclohexane-1-carboxylic acid] | 7.68 |
| Cc1nc(-c2nnn(C)c2NC(=O)OCC2(C)CC2)ccc1O[C@H]1CCC[C@H](C(=O)O)C1 [Example 224, (1S,3S)-3-((2-methyl-6-(1-methyl-5-((((1-methylcyclopropyl)methoxy)carbonyl)amino)-1H-1,2,3-triazol-4-yl)pyridin-3-yl)oxy)cyclohexane-1-carboxylic acid] | 7.22 |
| Cc1nc(-c2nnn(C)c2NC(=O)OC2CC3(CC3)C2)ccc1O[C@H]1CCC[C@H](C(=O)O)C1 [Example 225, (1S,3S)-3-((2-methyl-6-(1-methyl-5-(((spiro[2.3]hexan-5-yloxy)carbonyl)amino)-1H-1,2,3-triazol-4-yl)pyridin-3-yl)oxy)cyclohexane-1-carboxylic acid] | 6.74 |
| Cc1nc(-c2nnn(C)c2CNS(=O)(=O)NCC2CCCC2)ccc1O[C@H]1CCC[C@H](C(=O)O)C1 [Example 226, (1S,3S)-3-((6-(5-(((N-(cyclopentylmethyl)sulfamoyl)amino)methyl)-1-methyl-1H-1,2,3-triazol-4-yl)-2-methylpyridin-3-yl)oxy)cyclohexane-1-carboxylic acid] | 5.96 |
| CCCCOC(=O)Nc1c(-c2ccc(O[C@H]3CCC[C@H](C(=O)O)C3)c(CC)n2)nnn1C [Example 232, (1 S,3 S)-3-[(6-{5-[(butoxycarbonyl)amino]-1-methyl-1H-1,2,3-triazol-4-yl}-2-ethylpyridin-3-yl)oxy]cyclo-hexane-1-carboxylic acid] | 7.92 |

More lines, now with the values ahead:

| pIC50 | Structure (SMILES) |
| --- | --- |
| 5.74 | Cc1nc(-c2nnn(C)c2CNS(=O)(=O)NCc2ccccc2)ccc1O[C@H]1CCC[C@H](C(=O)O)C1 [Example 227, (1S,3S)-3-((6-(5-(((N-benzyl-sulfamoyl)amino)methyl)-1-methyl-1H-1,2,3-triazol-4-yl)-2-methyl-pyridin-3-yl)oxy)cyclohexane-1-carboxylic acid] |
| 6.66 | Cc1nc(-c2nnn(C)c2CN(C)S(=O)(=O)N(C)Cc2ccccc2)ccc1O[C@H]1CCC[C@H](C(=O)O)C1 [Example 228, (1S,3S)-3-((6-(5-(((N-benzyl-N-methyl-sulfamoyl)(methyl)amino)methyl)-1-methyl-1H-1,2,3-triazol-4-yl)-2-methylpyridin-3-yl)oxy)cyclohexane-1-carboxylic acid] |
| 6.96 | CCCCN(C)S(=O)(=O)N(C)Cc1c(-c2ccc(O[C@H]3CCC[C@H](C(=O)O)C3)c(C)n2)nnn1C [Example 229, (1S,3S)-3-((6-(5-(((N-butyl-N-methyl-sulfamoyl)(methyl)amino)methyl)-1-methyl-1H-1,2,3-triazol-4-yl)-2-methylpyridin-3-yl)oxy)cyclohexane-1-carboxylic acid] |
| 7.77 | CCc1nc(-c2nnn(C)c2NC(=O)OCC(C)C)ccc1O[C@H]1CCC[C@H](C(=O)O)C1 [Example 230, (1S,3S)-3-{[2-ethyl-6-(1-methyl-5-{[(2-methylpropoxy)carbonyl]amino}-1H-1,2,3-triazol-4-yl)pyridin-3-yl]oxy}cyclohexane-1-carboxylic acid] |
| 7.55 | CCc1nc(-c2nnn(C)c2NC(=O)OCC2CC2)ccc1O[C@H]1CCC[C@H](C(=O)O)C1 [Example 231, (1S,3S)-3-{[6-(5-{[(cyclopropyl-methoxy)carbonyl}amino}-1-methyl-1H-1,2,3-triazol-4-yl)-2-ethylpyridin-3-yl]oxy}cyclohexane-1-carboxylic acid] |
| 5.98 | CCCOC(=O)Nc1c(-c2ccc(O[C@H]3CCC[C@H](C(=O)O)C3)c(CC)n2)nnn1C [Example 233, (1S,3S)-3-[(2-ethyl-6-{1-methyl-5-[(propoxycarbonyl)amino]-1H-1,2,3-triazol-4-yl}pyridin-3-yl)oxy]cyclo-hexane-1-carboxylic acid] |
| 6.41 | Cc1nc(-c2nnn(C)c2CNC(=O)C(C)(C)Oc2ccccc2)ccc1O[C@H]1CCC[C@H](C(=O)O)C1 [Example 234, (1S,3S)-3-((2-methyl-6-(1-methyl-5-((2-methyl-2-phenoxypropanamido)methyl)-1H-1,2,3-triazol-4-yl)pyridin-3-yl)oxy)cyclohexane-1-carboxylic acid] |
| 6.98 | Cc1nc(-c2nnn(C)c2CNC(=O)CC2CCCC2)ccc1O[C@H]1CCC[C@H](C(=O)O)C1 [Example 235, (1S,3S)-3-((6-(5-((2-cyclopentylacetamido)methyl)-1-methyl-1H-1,2,3-triazol-4-yl)-2-methylpyridin-3-yl)oxy)cyclohexanecarboxylic acid] |
| 6.24 | Cn1nnc(-c2ccc(O[C@H]3CCC[C@H](C(=O)O)C3)cn2)c1CNC(=O)CC1CCCC1 [Example 236, (1S,3S)-3-((6-(5-((2-cyclopentylacetamido)methyl)-1-methyl-1H-1,2,3-triazol-4-yl)pyridin-3-yl)oxy)cyclohexanecarboxylic acid] |
| 6.11 | CCCCC(=O)NCc1c(-c2ccc(O[C@H]3CCC[C@H](C(=O)O)C3)c(C)n2)nnn1C [Example 237, (1S,3S)-3-((2-methyl-6-(1-methyl-5-(pentanamidomethyl)-1H-1,2,3-triazol-4-yl)pyridin-3-yl)oxy)cyclo-hexanecarboxylic acid] |

Same assay, conditions: human LPA1 functional antagonist assay; read-out: hLPA1 IC50

| pIC50 | Structure (SMILES) |
| --- | --- |
| 6.48 | Cc1nc(-c2nnn(C)c2CN(C)C(=O)OCC2CC2)ccc1O[C@H]1CCC[C@H](C(=O)O)C1 [Example 205, (1S,3S)-3-((6-(5-((((cyclopropylmethoxy)carbonyl)(methyl)amino)methyl)-1-methyl-1H-1,2,3-triazol-4-yl)-2-methyl-pyridin-3-yl)oxy)cyclohexane-1-carboxylic acid, TFA salt] |
